Laboratory results published in patent US7951549B2, “Methods for the identification of agents that inhibit mesenchymal-like tumor cells or their formation” (OSI Pharmaceuticals, Inc., priority 2008, dated 2011).
“Also recorded” adds a separate entry of the source.

What was measured:
Format in all cases: cell-based, human
H358 cells [1] = assay: Induction of EMT in H358 cells by growth factors and cytokines (immunoblot of EMT biomarkers); conditions: for induction of EMT in H358 cells: single ligand, 7 days
Protocol: The human line H358 was cultured in the appropriate ATCC recommended supplemented media. Growth factor and cytokine induced EMT was monitored over a 7-14 day period. Growth factors and cytokines were obtained from commercial sources and included TGFβ 10 ng/ml, Endothelin 100 nM, IL-4 5 ng/ml, IL-6 5 ng/ml, IL-8 5 ng/ml, VEGF 10 ng/ml, Stromal derived factor, 100 ng/ml, Epidermal derived factor 10 ng/ml, MMP2, 100 ng/ml, MMP7, 100 ng/ml, MMP9, 100 ng/ml, Collagen-I, 5 μg/cm2, Collagen-IV, 5 μg/cm2, Fibronectin, 1 μg/cm2, Laminin-I, 1 μg/cm2, Vitronectin, 0.1 μg/cm2, Polylysine, 100 mg/mL, HGF, 100 ng/mL, MSP, 100 ng/ml, IGF-1, 50 ng/mL, CSF-1, 100 ng/mL, ET1, 100 nM, SDF-1alpha, 100 ng/ml PGE2, 500 nM, LPA, 10 μM, S1P, 1 μM, TGFbeta1, 2.5 ng/mL, TNFalpha, 25 ng/mL, IL1beta, 2.5 ng/mL, IL6, 2 ng/mL, IL8, 0.5 ng/mL, WNT-1, 5 ng/mL, CTGF, 20 ng/ml, Trance, 50 ng/ml, FGF1, 10 ng/ml, FGF2, 10 ng/ml, BMP4, 100 ng/ml, BMP7, 100 ng/ml, IGF2, 100 ng/ml, Oncostatin M, 100 ng/ml, NRG1, 50 ng/ml, PDGF-AA, 50 ng/ml, PDGF-BB, 30 ng/ml, WISP1, 20 ng/ml, Fulvestrant, 1 μM, LIF, 20 ng/ml, IFN g, 50 ng/ml, HMG-B1, 50 ng/ml, M-CSF, 50 ng/ml, PTHrP, 50 ng/ml, MCP1, 50 ng/ml, IL-1a, 10 ng/ml, IL-33, 50 ng/ml, IL-31, 50 ng/ml, GM-CSF, 25 ng/ml, Angiopoeitin 2, 400 ng/ml, PAR1, 100 μM, PAR2, 100 μM, PAR4, 100 μM, Wnt5a, 200 ng/ml, G-CSF, 50 ng/ml, Amphiregulin, 100 ng/ml, CNTF, 25 ng/mL, Pleiotrophin, 25 ng/ml, Prolactin, 100 ng/ml, TRAIL, 100 ng/ml.
Cell lines were treated as indicated in the text and figure legends. Cell lysates were prepared in RIPA buffer (Sigma, #R0278) containing protease (Sigma #P8340) and phosphatase (Sigma, #P5726) inhibitors. Protein concentration was determined by micro-BCA assay (Pierce, #23227). Protein immunodetection was performed by electrophoretic transfer of SDS-PAGE separated proteins to nitrocellulose, incubation with antibody and chemiluminescent second step detection (PicoWest; Pierce, #34078). The antibodies used were: E-cadherin (sc21791), N-cadherin (#7939), ErbB3 (sc285), GAPDH (#25778) and Zeb1 (#25388), all from Santa Cruz Biotechnology; vimentin (BD550513) and fibronectin (BD610077; both from BD Biosciences); β-actin (Sigma, #A5441).

H358 cells [2] = assay: Immunofluorescence and confocal imaging of E-cadherin and vimentin in ligand-treated H358 cells; conditions: cells treated for 7 days
Protocol: (§1) Cells were plated on coverslips on experimental day 0, stimulated with ligand on day 1 and refreshed with medium and ligand on day 3-4. On day 7, cells were fixed at room temperature for 10 minutes in 4% paraformaldehyde (EMS #15701)/PBS (Gibco #14190). Cells were blocked in 3% BSA/PBS and incubated with primary antibody (E-cadherin, Santa Cruz #sc21791 and Vimentin, Chemicon #AB5733) diluted in blocking buffer for two hours at room temperature. Cells were washed and incubated in secondary antibody (Invitrogen #A11029 and Chemicon #AP194R) followed by nuclear counterstain TO-PRO3 (Invitrogen #T3605). Coverslips were mounted on slides with Pro-Long Gold anti-fade reagent (Invitrogen P36934). Images were captured on a Leica DMRXE microcope with SP2 scanner using Leica Confocal Software.

H358 cells [3] = assay: TGFβ-induced EMT of H358 cells in 3D matrigel culture, with and without inhibitor; conditions: 10 μM SB431542, ligand TGFβ
Protocol: 3-Dimensional matrigel culture: Tissue culture wells were coated with a layer of matrigel of 1 mm depth or greater. H358 cells were plated on top of this in 2% matrigel with seeding density of 2,500-5000 cells/cm^2. Once the cell/matrigel layer had solidified, media was added and cultures were allowed to incubate overnight at 37° C. in a CO2 incubator before treatment of cells with ligand with and without addition of 10 μM SB431542 (Sigma-Aldrich, St. Louis, Mo.; product #S4317). Culture media, ligand with and without addition of 10 μM SB431542 was replenished every 3-4 days during the duration of the experiment.
as §1, with “Images were captured on a Leica DMRXE microcope with SP2 scanner using Leica Confocal Software.” left out

H358 cells [4] = assay: Ligand-induced EMT in H358 cells with pharmacological inhibitors (Western blot markers, morphology); conditions: inhibitor and ligand for 7 days; for EMT in OSM-induced models (markers and morphology): OSM alone or in combination
Protocol: EMD Biosciences #444937), JAK inhibitor 1 (“JAKi”; EMD Biosciences #420099), and LY294002 (PI3K inhibitor (PI3Ki); EMD Biosciences #440202) were used in the concentrations indicated. Cells were treated with inhibitor 30 minutes prior to ligand stimulation. Medium, inhibitor and ligand were refreshed on experimental day 3 to 4. Cell lines were treated as indicated in the text and figure legends. Cell lysates were prepared in RIPA buffer (Sigma, #R0278) containing protease (Sigma #P8340) and phosphatase (Sigma, #P5726) inhibitors. Protein concentration was determined by micro-BCA assay (Pierce, #23227). Protein immunodetection was performed by electrophoretic transfer of SDS-PAGE separated proteins to nitrocellulose, incubation with antibody and chemiluminescent second step detection (PicoWest; Pierce, #34078). The antibodies used were: E-cadherin (sc21791), N-cadherin (#7939), ErbB3 (sc285), GAPDH (#25778) and Zeb1 (#25388), all from Santa Cruz Biotechnology; vimentin (BD550513) and fibronectin (BD610077; both from BD Biosciences); β-actin (Sigma, #A5441).

TGFβ was tested, and the E-cadherin expression (H358 cells [1]; seven day treatment of H358) was “marked decrease”, the vimentin expression (H358 cells [1]; seven day treatment of H358) was “robust increase” and the E-cadherin expression (H358 cells [1]; seven day treatment of H358, listed as TGF-beta) was “very substantial”. For the same compound, the “induction of EMT in H358 cells” value (H358 cells [1]) was “most complete EMT” and the “extent of EMT at the single cell level (E-cadherin and vimentin expression and localization)” value (H358 cells [2]) was “more complete EMT”.
“HGF: hepatocyte growth factor (Peprotech #100-39)” was tested, and the “E-cadherin repression or vimentin induction as single agents” value (H358 cells [1]; seven day treatment of H358) was “neither HGF or OSM as single agents produced significant” and the “extent of EMT at the single cell level (E-cadherin and vimentin expression and localization)” value (H358 cells [2]) was “partial EMT”.
With `NC(=O)c1ccc(-c2nc(-c3ccc4c(c3)OCO4)c(-c3ccccn3)[nH]2)cc1` [SB431542] the “epithelial to mesenchymal transition induced by TGFβ (vimentin, E-cadherin)” value (H358 cells [3]) was “abrogated; also recorded: inhibited”.
For `CC(C)(C)c1nc2c3cc[nH]c(=O)c3c3cc(F)ccc3c2[nH]1` [JAK inhibitor], the “EMT in OSM-induced models (markers and morphology)” value (H358 cells [4]) was “blocked”, the “EMT in OSM-induced models (markers and morphology)” value (H358 cells [4]; listed as JAKi) was “blocks” and the “downregulation of E-cadherin induced by OSM, TGFβ, HGF+OSM and TGFβ+OSM” value (H358 cells [4]; Western blot) was “blocked”. The “upregulation of vimentin by OSM, HGF+OSM and TGFβ+OSM” value (H358 cells [4]; Western blot) was “attenuated”.
In the case of “EGF: epidermal growth factor, protein ligand”, the “induction of EMT in H358 cells” value (H358 cells [1]) is reported as “to a lesser extent”.
TNFα was tested, and the “induction of EMT in H358 cells” value (H358 cells [1]) was “able to induce EMT”.
